# Data as given in patent EP4806900A2, “RAS INHIBITORS” (Revolution Medicines, Inc., priority 2019, dated 2021).
# Tested on: NCI-H358 (K-Ras G12C)
# Test: CellTiter-Glo cell viability assay, NCI-H358
# Assay type: cell-based, human
# Conditions: Homo sapiens, NCI-H358, Table 5; read-out: H358 Cell Viability assay data (K-Ras G12C, IC50)
# How it was run: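 Compounds dispensed directly onto plated NCI-H358 cells; plates equilibrated to room temperature on day 5 before luminescence read-out. Signal normalized to mean DMSO control (%) and fitted by four-parameter logistic.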
row,Compound,IC50
1,C=CC(=O)N1CC[C@H](C(=O)N(C)[C@H](C(=O)N[C@H]2Cc3cc(O)cc(c3)-c3ccc4c(c3)c(c(-c3cnn(C)c3[C@H](C)OC)n4CC)CC(C)(C)COC(=O)[C@@H]3CCCN(N3)C2=O)C(C)C)C1 [Compound A166],< 0.01 µM
2,C=CC(=O)N1CC[C@H](C(=O)N(C)[C@H](C(=O)N[C@H]2C[C@H]3CN(CCO3)c3ccc4c(c3)c(c(-c3cccnc3[C@H](C)OC)n4CC)CC(C)(C)COC(=O)[C@@H]3CCCN(N3)C2=O)C(C)C)C1 [Compound A378],0.1 to 1 µM
3,CO[C@@H](C)c1ncccc1-c1c2c3cc(ccc3n1CC(F)(F)F)-c1nnc(o1)C[C@H](NC(=O)[C@H](C(C)C)N(C)C(=O)[C@H]1CCN(C(=O)C#CC(C)(C)N3CCC3)C1)C(=O)N1CCC[C@H](N1)C(=O)OCC(C)(C)C2 [Compound A423],0.01 to 0.1 µM
4,C=CC(=O)N1CC[C@H](C(=O)N(C)[C@H](C(=O)N[C@H]2CC3=NN=C(O3)c3ccc4c(c3)c(c(-c3cccnc3[C@H](C)OCC)n4CC(F)(F)F)CC(C)(C)COC(=O)[C@@H]3CCCN(N3)C2=O)C(C)C)C1 [Compound A424],0.1 to 1 µM
5,C=CC(=O)N1CC[C@H](C(=O)N(C)C(C(=O)N[C@H]2C[C@H]3CN(CCO3)c3ccc4c(c3)c(c(-c3cccnc3[C@H](C)OC)n4CC)CC(C)(C)COC(=O)[C@@H]3CCCN(N3)C2=O)C(C)C)C1 (some centres unmarked) [Compound A507],0.1 to 1 µM
6,"CO[C@@H](C)c1ncc(N2CCN(C)CC2)cc1-c1c2c3cc(ccc3n1CC(F)(F)F)-c1cccc(c1)C[C@H](NC(=O)[C@H](C(C)C)N(C)C(=O)C1(F)CCN(C(=O)C#CC(C)(C)N(C)C)CC1)C(=O)N1CCC[C@H](N1)C(=O)OCC(C)(C)C2 [Compound A542, 1-(4-(dimethylamino)-4-methylpent-2-ynoyl)-4-fluoro-N-((2S)-1-(((6^1S,4S)-1^2-(2-((S)-1-methoxyethyl)-5-(4-methylpiperazin-1-yl)pyridin-3-yl)-10,10-dimethyl-5,7-dioxo-1^1-(2,2,2-trifluoroethyl)-6^1,6^2,6^3,6^4,6^5,6^6-hexahydro-1^1H-8-oxa-1(5,3)-indola-6(1,3)-pyridazina-2(1,3)-benzenacycloundecaphane-4-yl)amino)-3-methyl-1-oxobutan-2-yl)-N-methylpiperidine-4-carboxamide]",< 0.01 µM

# Same assay, conditions: Homo sapiens, NCI-H358, read-out: H358 Cell Viability assay data (K-Ras G12C, IC50, uM), Table 5
row,Compound,IC50
1,C=CC(=O)N1CC[C@H](C(=O)N(C)[C@H](C(=O)N[C@H]2Cc3cc(O)cc(c3)-c3ccc4c(c3)c(c(-c3cc(C)cnc3[C@H](C)OC)n4CC)CC(C)(C)COC(=O)[C@@H]3CCCN(N3)C2=O)C(C)C)C1 [Compound A167],< 0.01 µM
2,CCn1c(-c2cccnc2[C@H](C)OC)c2c3cc(ccc31)-c1cc(O)cc(c1)C[C@H](NC(=O)[C@H](C(C)C)N(C)C(=O)[C@H]1CCN(C(=O)C#CCN3CCOCC3)C1)C(=O)N1CCC[C@H](N1)C(=O)OCC(C)(C)C2 [Compound A182],< 0.01 µM
3,C=CC(=O)Nc1ccc(C(=O)N(C)[C@H](C(=O)N[C@H]2Cc3cc(O)cc(c3)-c3ccc4c(c3)c(c(-c3cccnc3[C@H](C)OC)n4CC)CC(C)(C)COC(=O)[C@@H]3CCCN(N3)C2=O)C(C)C)cn1 [Compound A250],< 0.01 µM
4,"C=CC(=O)N1CC[C@H](C(=O)N(C)[C@H](C(=O)N[C@H]2Cc3nc(cs3)-c3ccc4c(n3)c(c(-c3cccnc3[C@H](C)OC)n4CC)CC(C)(C)COC(=O)[C@@H]3CCCN(N3)C2=O)C(C)C)C1 [Compound A347, (2S)-N-[(7S,13S)-21-ethyl-20-{2-[(1S)-1-methoxyethyl]pyridin-3-yl}-17,17-dimethyl-8,14-dioxo-15-oxa-4-thia-9,21,25,27,28-pentaazapentacyclo[17.5.2.1^{2,5}.1^{9,13}.0^{22,26}]octacosa-1(25),2,5(28),19,22(26),23-hexaen-7-yl]-3-methyl-2-{N-methyl-1-[(3S)-1-(prop-2-enoyl)pyrrolidin-3-yl]formamido}butanamide]",0.1 to 1 µM
5,CCn1c(-c2cccnc2[C@H](C)OC)c2c3cc(ccc31)-c1csc(n1)C[C@H](NC(=O)[C@H](C(C)C)N(C)C(=O)N(C)C1CN(C(=O)/C=C/C(C)(C)O)C1)C(=O)N1CCC[C@H](N1)C(=O)OCC(C)(C)C2 [Compound A350],0.1 to 1 µM
6,CCn1c(-c2cccnc2C(C)OC)c2c3cc(ccc31)-c1cccc(c1)CC(NC(=O)C(C(C)C)N1CCC3(CCN(C(=O)C#CC(C)(C)N4CCC4)C3)C1=O)C(=O)N1CCCC(N1)C(=O)OCC(C)(C)C2 (centres unmarked) [Compound A365],< 0.01 µM
7,CCn1c(-c2cccnc2[C@H](C)OC)c2c3cc(ccc31)-c1csc(n1)C[C@H](NC(=O)[C@H](C(C)C)N(C)C(=O)N1CC(N(C)C(=O)C#CC(C)(C)N3CCC3)C1)C(=O)N1CCC[C@H](N1)C(=O)OCC(C)(C)C2 [Compound A379],< 0.01 µM
8,C=CC(=O)N1CCN(C(=O)N(C)[C@H](C(=O)N[C@H]2Cc3nc(cs3)-c3ccc4c(c3)c(c(-c3cccnc3[C@H](C)OC)n4CC(F)(F)F)CC(C)(C)COC(=O)[C@@H]3CCCN(N3)C2=O)C(C)C)CC1 [Compound A464],< 0.01 µM
9,CO[C@@H](COC1CN(C(=O)C#CC(C)(C)N(C)C)C1)C(=O)N[C@H]1Cc2cccc(c2)-c2ccc3c(c2)c(c(-c2cccnc2[C@H](C)OC)n3CC(F)(F)F)CC(C)(C)COC(=O)[C@@H]2CCCN(N2)C1=O [Compound A556],< 0.01 µM
10,C=CC(=O)N1CCOC2CCN(C(=O)N(C)C(C(=O)NC3Cc4nc(cs4)-c4ccc5c(c4)c(c(-c4cccnc4C(C)OC)n5CC)CC(C)(C)COC(=O)C4CCCN(N4)C3=O)C(C)C)CC21 (centres unmarked) [Compound A596],< 0.01 µM
11,C=CC(=O)N1CC[C@H](C(=O)N(C)[C@H](C(=O)N[C@H]2Cc3cc(CF)cc(c3)-c3ccc4c(c3)c(c(-c3cccnc3[C@H](C)OC)n4CC(F)(F)F)CC(C)(C)COC(=O)[C@@H]3CCCN(N3)C2=O)C(C)C)C1 [Compound A659],< 0.01 µM

# Same assay, conditions: Table 5; read-out: H358 Cell Viability assay data (K-Ras G12C, IC50)
row,Compound,IC50
1,C=CC(=O)N1CC2CCC1CN2C(=O)N(C)[C@H](C(=O)N[C@H]1Cc2nc(cs2)-c2ccc3c(c2)c(c(-c2cccnc2[C@H](C)OC)n3CC)CC(C)(C)COC(=O)[C@@H]2CCCN(N2)C1=O)C(C)C [Compound A420],0.01 to 0.1 µM
2,CCn1c(-c2cccnc2C(C)OC)c2c3cc(ccc31)-c1cccc(c1)C[C@H](NC(=O)[C@H](C(C)C)N(C)C(=O)N1CCC13CN(C(=O)C#CC(C)(C)N(C)C)C3)C(=O)N1CCC[C@H](N1)C(=O)OCC(C)(C)C2 (some centres unmarked) [Compound A717],0.01 to 0.1 µM
3,C=CC(=O)N1CC[C@H](C(=O)N(C)[C@H](C(=O)N[C@H]2Cc3cc(O)cc(c3)-c3ccc4c(c3)c(c(-c3ccc(CN5CC[C@@H](O)C5)cc3)n4CC)CC(C)(C)COC(=O)[C@@H]3CCCN(N3)C2=O)C(C)C)C1 [Examples A1],0.1 to 1 µM

# Same assay, conditions: read-out: H358 Cell Viability assay data (K-Ras G12C, IC50); Table 5
row,Compound,IC50
1,C=CC(=O)Nc1ccc(C(=O)N(C)[C@H](C(=O)N[C@H]2Cc3cc(O)cc(c3)-c3ccc4c(c3)c(c(-c3cccnc3[C@H](C)OC)n4CC)CC(C)(C)COC(=O)[C@@H]3CCCN(N3)C2=O)C(C)C)cn1 [Compound A336],< 0.01 µM
2,C=CC(=O)N1CCN(C(=O)N(C)[C@H](C(=O)N[C@H]2Cc3nc(cs3)-c3ccc4c(c3)c(c(-c3cccnc3[C@H](C)OC)n4CC(F)(F)F)CC(C)(C)COC(=O)[C@@H]3CCCN(N3)C2=O)C(C)C)CC1 [Compound A465],< 0.01 µM
3,C=CC(=O)N1CC[C@H](C(=O)N(C)[C@H](C(=O)N[C@H]2Cc3cccc(c3)-c3ccc4c(c3)c(c(-c3cc(C5=CCN(C)CC5)cnc3[C@H](C)OC)n4CC)CC(C)(C)COC(=O)[C@@H]3CCCN(N3)C2=O)C(C)C)C1 [Compound A514],0.1 to 1 µM
